Target: T1, MyD88^TIR (Homo sapiens, UniProt Q99836)
T1 construct: MyD88 (residues 148–296); 6xHis; made in house; host or cells: E. coli BL21 (DE3)
Test: T‐Surf phage library (P8 and P3) selection against MyD88^TIR, four rounds, NGS read counts
Format: binding
Conditions: for P8_MyD88 Rank (after) / P8_MyD88 Rank (before): P8 library; for P3_MyD88 Rank (after) / P3_MyD88 Rank (before): P3 library; for Population: 4th round of selection against MyD88 TIR, share of NGS reads
Outline: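 Four panning rounds on TIR domain adsorbed at 5 µg mL^−1; binding 1 h at 20–22 °C, elution with 100 mM HCl. Output: NGS read counts of round‐4 pools versus naïve library.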

[1] = selection against MyD88 TIR, rank by count after grouping
[2] = selection against MyD88 TIR, rank by count before grouping
[3] = selection against MyD88, rank by count after grouping
[4] = selection against MyD88, rank by count before grouping
[5] = 4R selection against MyD88, rank after grouping
[6] = 4R selection against MyD88, rank before grouping
[7] = selection against MyD88, rank after grouping
[8] = selection against MyD88, rank before grouping
[9] = P8_MyD88: rank by count after grouping
[10] = P8_MyD88: rank by count before grouping
[11] = P8_MyD88: rank by NGS read count after grouping
[12] = P8_MyD88: rank by NGS read count before grouping
[13] = P3_MyD88: rank by count after grouping
[14] = P3_MyD88: rank by count before grouping
[15] = P8_MyD88 pool: P8 T-Surf phage library

T1 sequence (Q99836 148-296): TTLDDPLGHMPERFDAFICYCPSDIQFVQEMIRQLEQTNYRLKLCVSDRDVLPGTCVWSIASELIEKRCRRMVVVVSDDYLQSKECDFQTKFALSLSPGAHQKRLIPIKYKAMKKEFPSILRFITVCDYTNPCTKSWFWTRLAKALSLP

## AYSPWALDELVKIIEA
[1]
  P8_MyD88 Rank (after): 214
[2]
  P8_MyD88 Rank (before): 303

## STTYLQWGDNWFWDKL
[3]
  P8_MyD88 Rank (after): 740
[4]
  P8_MyD88 Rank (before): 3819

## RSFREGLWRLLELRKK
[5]
  P3_MyD88 Rank (after): 629
[6]
  P3_MyD88 Rank (before): 2693

## DHHLDLPRGKAIKPEILS
P3_MyD88 pool: P3 T-Surf phage library
  Population: 0.0032%

## DGGWDYLLPNVEGPAC
[3]
  P8_MyD88 Rank (after): 760
[4]
  P8_MyD88 Rank (before): 2560

## LVAHEITKKLKSFATI
[5]
  P3_MyD88 Rank (after): 641
[6]
  P3_MyD88 Rank (before): 2309

## DLVCDYLLPNLEGAAG
[7]
  P8_MyD88 Rank (after): 537
[8]
  P8_MyD88 Rank (before): 2385

## VQCGDPWCWEKLAYAM
[5]
  P8_MyD88 Rank (after): 596
[6]
  P8_MyD88 Rank (before): 2212

## NEWVNAWTSKANRRVG
[5]
  P3_MyD88 Rank (after): 602
[6]
  P3_MyD88 Rank (before): 3395

## PQELEWFYERPVSLML
[9]
  Rank (after): 458
[10]
  Rank (before): 3506

## YQWRNALSAAANLCGW
[7]
  P3_MyD88 Rank (after): 569
[8]
  P3_MyD88 Rank (before): 1617

## YPQDLEWLYERLVSPV
[11]
  Rank (after): 945
[12]
  Rank (before): 2099

## LEANDSLFWDRLLYSLHVTE
[9]
  Rank (after): 179
[10]
  Rank (before): 214

## WALDVLLQFLHARELF
[3]
  P8_MyD88 Rank (after): 723
[4]
  P8_MyD88 Rank (before): 1412

## NDSLFWDRLPYSLNVT
[9]
  Rank (after): 468
[10]
  Rank (before): 3868

## YASYDDNDYYWVTHVLLRFV
[1]
  P8_MyD88 Rank (after): 215
[2]
  P8_MyD88 Rank (before): 1788

## EWILSKLSQHILKREK
[5]
  P3_MyD88 Rank (after): 632
[6]
  P3_MyD88 Rank (before): 2128

## LRYDDPWFWEKLVFAM
[1]
  P8_MyD88 Rank (after): 237
[2]
  P8_MyD88 Rank (before): 416

## WIWEKLKYALPHRYEP
[5]
  P3_MyD88 Rank (after): 640
[6]
  P3_MyD88 Rank (before): 1424

## PQDLAWLYERPLSLIL
[11]
  Rank (after): 1015
[12]
  Rank (before): 3424

## QLIGCGNTFFRWKKKIR
[11]
  Rank (after): 1002
[12]
  Rank (before): 3572

## DPQARDCFYERLVSLF
[9]
  Rank (after): 476
[10]
  Rank (before): 2687

## SENYVTSPCAVDELVP
[3]
  P3_MyD88 Rank (after): 712
[4]
  P3_MyD88 Rank (before): 2957

## SELRVVDDGRVSPMAM
[13]
  Rank (after): 464
[14]
  Rank (before): 3019

## YLKCGYPCFCDRLRFA
[5]
  P3_MyD88 Rank (after): 620
[6]
  P3_MyD88 Rank (before): 1566

## SENYATSPWALKERLP
[13]
  Rank (after): 133
[14]
  Rank (before): 734

## WALYELLHILHARELF
[7]
  P8_MyD88 Rank (after): 532
[8]
  P8_MyD88 Rank (before): 1401

## GWIREHLWPLLKQRMT
[7]
  P3_MyD88 Rank (after): 521
[8]
  P3_MyD88 Rank (before): 1877

## WALDEVLQILRARELF
[9]
  Rank (after): 419
[10]
  Rank (before): 1421

## IDDDHLTYLVRLLLSLL
[7]
  P8_MyD88 Rank (after): 539
[8]
  P8_MyD88 Rank (before): 3634

## FHGDELRDNFIRYLVW
[1]
  P8_MyD88 Rank (after): 252
[2]
  P8_MyD88 Rank (before): 421

## DPQDLDWFSERLVILF
[11]
  Rank (after): 1012
[12]
  Rank (before): 2747

## WALDELLQILHARRTE
[3]
  P8_MyD88 Rank (after): 702
[4]
  P8_MyD88 Rank (before): 1457

## DSLFWDRLLPNLEGPAG
[5]
  P8_MyD88 Rank (after): 645
[6]
  P8_MyD88 Rank (before): 3104

## WALDERLIIQYANETM
[3]
  P8_MyD88 Rank (after): 679
[4]
  P8_MyD88 Rank (before): 1510

## WALDELLTILYAKETM
[5]
  P8_MyD88 Rank (after): 608
[6]
  P8_MyD88 Rank (before): 1468

## SENYATSPWALDELLIAIEE
[7]
  P3_MyD88 Rank (after): 519
[8]
  P3_MyD88 Rank (before): 2979

## YASSSWALDELLKILYANETM
[9]
  Rank (after): 190
[10]
  Rank (before): 277

## DPQDLAWFYERLVSLF
[15]
  Population: 0.00617%

## SSFREGVWRLLEVSKK
[13]
  Rank (after): 151
[14]
  Rank (before): 3148

## DPQLLDWFYVRLVSLL
[11]
  Rank (after): 1001
[12]
  Rank (before): 3022

## WLESVLEDKFGYSLAL
[9]
  Rank (after): 110
[10]
  Rank (before): 116
[15]
  Population: 0.02%

## WFWQKLNYAMPHLARL
[1]
  P8_MyD88 Rank (after): 200
[2]
  P8_MyD88 Rank (before): 271

## YASYDDNDYYWVTHVLLRH
[11]
  Rank (after): 997
[12]
  Rank (before): 1799

## PEKANGGENAFFNNIV
[7]
  P3_MyD88 Rank (after): 566
[8]
  P3_MyD88 Rank (before): 2705

## QDLGWFYERLISQILK
[9]
  Rank (after): 108
[10]
  Rank (before): 114
[15]
  Population: 0.02%

## WALNELQQILHARELF
[9]
  Rank (after): 445
[10]
  Rank (before): 1549

## DQHLDLPRGKAIKPELLG
[13]
  Rank (after): 475
[14]
  Rank (before): 2066

## YTALTNCGFHTFRDNV
[1]
  P3_MyD88 Rank (after): 208
[2]
  P3_MyD88 Rank (before): 1649

## NELVQVWSSKANSLVR
[3]
  P3_MyD88 Rank (after): 693
[4]
  P3_MyD88 Rank (before): 3400

## YYFTIGIAKRKLSRK
[3]
  P8_MyD88 Rank (after): 692
[4]
  P8_MyD88 Rank (before): 1687

## DYASSWWALEEMAKIM
[9]
  Rank (after): 177
[10]
  Rank (before): 202

## DWVWDYLLPNLEGHAT
[11]
  Rank (after): 904
[12]
  Rank (before): 2439

## MEANSSRIWHRLLYSV
[3]
  P8_MyD88 Rank (after): 769
[4]
  P8_MyD88 Rank (before): 3687

## YKLALHFRDWLVGVH
[11]
  Rank (after): 901
[12]
  Rank (before): 2137

## DPQDLDWFYERLVSL
[1]
  P8_MyD88 Rank (after): 233
[2]
  P8_MyD88 Rank (before): 716

## LKVENWRQALEQAGKL
[1]
  P3_MyD88 Rank (after): 203
[2]
  P3_MyD88 Rank (before): 2526

## YASSTWWLRELLQIA
[9]
  Rank (after): 147
[10]
  Rank (before): 208

## WDFASSTWWLRELLQIA
[1]
  P8_MyD88 Rank (after): 272
[2]
  P8_MyD88 Rank (before): 524

## DPLHLDWHYERLVSTD
[3]
  P8_MyD88 Rank (after): 680
[4]
  P8_MyD88 Rank (before): 2615

## YLLLSEFHSELALRPL
[5]
  P8_MyD88 Rank (after): 637
[6]
  P8_MyD88 Rank (before): 2016

## DPQDLQSLYEGLVSLV
[9]
  Rank (after): 467
[10]
  Rank (before): 2944

## WLLDQLDKILEAHGTT
[3]
  P8_MyD88 Rank (after): 693
[4]
  P8_MyD88 Rank (before): 1380

Source: paper PMC11714206, “Massively Parallel Screening of Toll/Interleukin‐1 Receptor (TIR)‐Derived Peptides Reveals Multiple Toll‐Like Receptors (TLRs)‐Targeting Immunomodulatory Peptides” (Advanced Science, 2024)
